Laboratory results from patent US20240226125A1, “USE OF SOTAGLIFLOZIN FOR THE TREATMENT OF PATIENTS WITH TYPE 1 DIABETES MELLITUS” (priority 2019, published 2024).

Tested on: adult patients with Type 1 Diabetes Mellitus who have inadequate glycemic control with insulin therapy
Assay: inTandem 1 and inTandem 2 pooled clinical studies, safety events / main risks
Assay type: in vivo, human
Conditions: for Discontinuation of drug due to diarrhea / Patients with Any TEAE, (%) / Patients with DKA (positively adjudicated), (%) / Patients with Diarrhea, (%) / Patients with Genital mycotic infection, (%) / Patients with Severe hypoglycemia (positively adjudicated), (%): through 52 Weeks
[1] = 400 mg, Baseline BMI <27 kg/m^2, Week 52
[2] = 400 mg, Baseline BMI ≥27 kg/m^2, Week 52

CCOc1ccc(Cc2cc([C@@H]3O[C@H](SC)[C@@H](O)[C@H](O)[C@H]3O)ccc2Cl)cc1 [sotagliflozin, (2S,3R,4R,5S,6R)-2-(4-chloro-3-(4-ethoxybenzyl)phenyl)-6-(methylthio)tetrahydro-2H-pyran-3,4,5-triol]
Diarrhea, EAIR per 1,000 Subject-years (95% CL) [1]: 102.78 (56.56, 148.99) per 1,000 Subject-years
Diarrhea, Events [n (%) n]: events n [1]: 28
Diarrhea, Events [n (%) n]: patients (%) [1]: 9.0%
Diarrhea, Events [n (%) n]: patients n [1]: 19
Diarrhea, Events per Subject per Year [1]: 0.151 Events per Subject per Year
Diarrhea, Relative Risk of EAIR (95% CL) Versus Placebo [1]: 2.98 (1.28, 7.60)
Documented hypoglycemia <55 mg/dL, Events per Subject per Year [1]: 15.74 Events per Subject per Year
Genital Mycotic Infections (female), EAIR per 1,000 Subject-years (95% CL) [1]: 196.79 (108.30, 285.28) per 1,000 Subject-years
Genital Mycotic Infections (female), Events [n (%) n]: events n [1]: 31
Genital Mycotic Infections (female), Events [n (%) n]: patients (%) [1]: 16.8%
Genital Mycotic Infections (female), Events per Subject per Year [1]: 0.321 Events per Subject per Year
Genital Mycotic Infections (female), Relative Risk of EAIR (95% CL) Versus Placebo [1]: 6.46 (2.09, 27.41)
Genital Mycotic Infections (male), EAIR per 1,000 Subject-years (95% CL) [1]: 101.91 (35.33, 168.49) per 1,000 Subject-years
Genital Mycotic Infections (male), Events [n (%) n]: events n [1]: 10
Genital Mycotic Infections (male), Events [n (%) n]: patients (%) [1]: 9.1%
Genital Mycotic Infections (male), Events per Subject per Year [1]: 0.113 Events per Subject per Year
Genital Mycotic Infections (male), Relative Risk of EAIR (95% CL) Versus Placebo [1]: 5.31 (1.26, 36.06)
Positively Adjudicated Diabetic Ketoacidosis, EAIR per 1,000 Subject-years (95% CL) [1]: 48.68 (16.88, 80.49) per 1,000 Subject-years
Positively Adjudicated Diabetic Ketoacidosis, Events [n (%) n]: events n [1]: 9
Positively Adjudicated Diabetic Ketoacidosis, Events [n (%) n]: patients (%) [1]: 4.2%
Positively Adjudicated Diabetic Ketoacidosis, Events per Subject per Year [1]: 0.049 Events per Subject per Year
Positively Adjudicated Severe Hypoglycemia, EAIR per 1,000 Subject-years (95% CL) [1]: 59.50 (24.34, 94.67) per 1,000 Subject-years
Positively Adjudicated Severe Hypoglycemia, Events [n (%) n]: events n [1]: 16
Positively Adjudicated Severe Hypoglycemia, Events [n (%) n]: patients (%) [1]: 5.2%
Positively Adjudicated Severe Hypoglycemia, Events per Subject per Year [1]: 0.087 Events per Subject per Year
Positively Adjudicated Severe Hypoglycemia, Relative Risk of EAIR (95% CL) Versus Placebo [1]: 0.71 (0.32, 1.51)
Diarrhea, EAIR per 1,000 Subject-years (95% CL) [2]: 92.38 (57.53, 127.23) per 1,000 Subject-years
Diarrhea, Events [n (%) n]: events n [2]: 37
Diarrhea, Events [n (%) n]: patients (%) [2]: 8.6%
Diarrhea, Events [n (%) n]: patients n [2]: 27
Diarrhea, Events per Subject per Year [2]: 0.127 Events per Subject per Year
Diarrhea, Relative Risk of EAIR (95% CL) Versus Placebo [2]: 1.25 (0.70, 2.27)
Documented hypoglycemia <55 mg/dL, Events per Subject per Year [2]: 14.45 Events per Subject per Year
Genital Mycotic Infections (female), EAIR per 1,000 Subject-years (95% CL) [2]: 192.26 (121.05, 263.48) per 1,000 Subject-years
Genital Mycotic Infections (female), Events [n (%) n]: events n [2]: 48
Genital Mycotic Infections (female), Events [n (%) n]: patients (%) [2]: 17.6%
Genital Mycotic Infections (female), Events per Subject per Year [2]: 0.330 Events per Subject per Year
Genital Mycotic Infections (female), Relative Risk of EAIR (95% CL) Versus Placebo [2]: 2.70 (1.30, 6.04)
Genital Mycotic Infections (male), EAIR per 1,000 Subject-years (95% CL) [2]: 47.74 (12.37, 83.10) per 1,000 Subject-years
Genital Mycotic Infections (male), Events [n (%) n]: events n [2]: 10
Genital Mycotic Infections (male), Events [n (%) n]: patients (%) [2]: 4.5%
Genital Mycotic Infections (male), Events per Subject per Year [2]: 0.068 Events per Subject per Year
Genital Mycotic Infections (male), Relative Risk of EAIR (95% CL) Versus Placebo [2]: 6.93 (1.07, 157.36)
Positively Adjudicated Diabetic Ketoacidosis, EAIR per 1,000 Subject-years (95% CL) [2]: 37.64 (15.39, 59.88) per 1,000 Subject-years
Positively Adjudicated Diabetic Ketoacidosis, Events [n (%) n]: events n [2]: 11
Positively Adjudicated Diabetic Ketoacidosis, Events [n (%) n]: patients (%) [2]: 3.5%
Positively Adjudicated Diabetic Ketoacidosis, Events per Subject per Year [2]: 0.038 Events per Subject per Year
Positively Adjudicated Diabetic Ketoacidosis, Relative Risk of EAIR (95% CL) Versus Placebo [2]: 10.22 (1.74, 221.94)
Positively Adjudicated Severe Hypoglycemia, EAIR per 1,000 Subject-years (95% CL) [2]: 41.06 (17.83, 64.29) per 1,000 Subject-years
Positively Adjudicated Severe Hypoglycemia, Events [n (%) n]: events n [2]: 17
Positively Adjudicated Severe Hypoglycemia, Events [n (%) n]: patients (%) [2]: 3.8%
Positively Adjudicated Severe Hypoglycemia, Events per Subject per Year [2]: 0.058 Events per Subject per Year
Positively Adjudicated Severe Hypoglycemia, Relative Risk of EAIR (95% CL) Versus Placebo [2]: 0.51 (0.24, 1.02)
Discontinuation of drug due to diarrhea (SOTA 200 mg): 0.4%
Patients with Any TEAE, (%) (SOTA 200 mg): (75.0) %
Patients with DKA (positively adjudicated), (%) (SOTA 200 mg): (2.9) %
Patients with Diarrhea, (%) (SOTA 200 mg): (6.5) %
Patients with Genital mycotic infection, (%) (SOTA 200 mg): (9.2) %
Patients with Severe hypoglycemia (positively adjudicated), (%) (SOTA 200 mg): (5.7) %
Discontinuation of drug due to diarrhea (SOTA 400 mg): 0.8%
Patients with Any TEAE, (%) (SOTA 400 mg): (74.3) %
Patients with DKA (positively adjudicated), (%) (SOTA 400 mg): (3.8) %
Patients with Diarrhea, (%) (SOTA 400 mg): (8.8) %
Patients with Genital mycotic infection, (%) (SOTA 400 mg): (12.0) %
Patients with Severe hypoglycemia (positively adjudicated), (%) (SOTA 400 mg): (4.4) %
risk of diarrhea compared to placebo (baseline BMI ≥27 kg/m^2, any doses): No increased risk
risk of DKA versus placebo (both BMI subgroups): increased
risk of severe hypoglycemia (both doses, baseline BMI ≥27 kg/m^2 (only 400 mg in BMI <27 kg/m^2)): numerically lower risk
event rates of documented hypoglycemia ≤55 mg/dL (both doses, both BMI subgroups): numerically lower
